In one assay the test system is RCC4 cells. In words: Cell death in RCC4 cells, siRNA to VDAC1 or AEP combined with 3BP. Format: cell-based. To be noted: 3BP combined with siRNA to VDAC1 or AEP. The source says: In patients who progressively lose the primary cilium, this loss generated increased metabolism and greater resistance to cell death, promoting tumor growth. Since this loss was related to the presence of the cleaved form of VDAC1, the strategy would therefore be to prevent the cleavage of VDAC1 to restore the presence of the primary cilium. […] Indeed, we characterized a signature related to EMT that can explain the aggressive phenotype of the tumors of these patients. However, remodeling of metabolism was changed. Although cancer metabolism is a hallmark of cancer, it has been shown that aberrant metabolism supports EMT (47,48). […] It is therefore possible to envisage specific treatment for these groups: Temsirolimus (50) or Everolimus, specific inhibitors of mTOR (51) that block proliferation, in combination with small molecule inhibitors that prevent EMT such as EW-7197 or IN-1130, through a block in TGFβ1 and 2, have already been used in metastatic breast and lung cancer (52). By maintaining only one metabolic pathway, cancer cells with a GLI1+/IFT20+ signature offer a metabolic vulnerability that it would be wise to exploit. […] Finally, combination of an immune checkpoint inhibitor such as atezolizumab or nivolumab (an anti-PDL1 or PD1 inhibitor) alone or plus 3-bromopyruvate could be evaluated on PC+ patients with such reduced overall survival (FIG. 1). […]

A further assay concerns RCC4 siVDAC1 cells. In words: Invasion assay (aggressiveness) of RCC4 siVDAC1 cells treated with 3BP. Format: cell-based. As to the method:
The invasion assay was performed using cell culture inserts with 8.0 μm pore transparent PET membrane coated with 10 μg/mL fibronectin. Inserts were coated with 2 μg/μL of Matrigel and incubated for 3 h at 37° C. in a CO2 incubator. Briefly, overnight serum-starved cells (8×10^4 cells) were seeded into the top chamber in medium without FBS, while medium with 10% FBS was present in the bottom chamber. The cells were incubated for 24 h. Media and remaining cells were removed from the top chamber with a cotton swab and washed twice with PBS. The bottom chamber was aspirated and washed twice with PBS. Inserts were fixed with 4% PFA. Invasiveness was assayed in triplicate for each condition, in at least three independent experiments. Cells that invaded the Matrigel and migrated through the filter and adhered to the lower surface were stained for 10 min with 0.5% crystal violet in 25% methanol. Inserts were rinsed in distilled water until no additional stain leached and were air-dried overnight. Crystal violet was extracted from the invading cells by adding 600 μl of 0.1M sodium citrate in 10% acetic acid. Absorbance was measured spectrophotometrically at 585 nm using Spectronic GENESYS 5 (Milton Roy, Rochester, N.Y.). Microarray experiments Microarray experiments were already described (22). […]

Assay [1] concerns RCC4+pVHL, RCC4 and RCC4 siVDAC1 cells. As to the kind of experiment: Sensitivity of RCC4 cell variants to sunitinib or 3BP treatment. The assay is classed as cell-based. Here is the method:
RCC4/pVHL and 786-O/pVHL cells were grown in Dulbecco's Modified Eagle's Medium (DMEM) (Gibco-BRL) supplemented with 10% fetal bovine serum with penicillin G (50 U/ml) and streptomycin sulfate (50 μg/ml). ACHN and A498 RCC cell lines were purchased from the ATCC (Mar. 3, 2013). The RCC10 cell line was a kind gift from Dr. W. H. Kaelin (Dana-Farber Cancer Institute, Boston, Mass.). An INVIVO2 200 anaerobic workstation (Ruskinn Technology Biotrace International Plc) set at 1% oxygen, 94% nitrogen and 5% carbon dioxide was used for hypoxic conditions.
Cells (5000-10000) were plated on 60 mm dishes and incubated at 37° C., 5% CO2 for colony formation. After 10 days, colonies were fixed with 10% (v/v) methanol for 15 min and stained with 5% Giemsa (Sigma) for 30 min for colony visualization.
Sunitinib, a vascular endothelial growth factor receptor inhibitor is widely used for patients with metastatic RCC. RCC4+pVHL−, RCC4− and RCC4 siVDAC1− cells were treated with 1.0 and 1.5 μM of sunitinib (Data not shown). […] As RCC4 cells with VDAC1-ΔC present a higher glycolysis than RCC4+pVHL cells, we used 3 Bromopyruvate (3BP), an halogenated analogue of pyruvic acid that enters cells like a lactate via monocarboxylic acid transporters, to block glycolysis.

The subject of another assay is ccRCC. As to the kind of experiment: Survival (PFS, OS) of sunitinib-treated ccRCC patients by GLI1/IFT20 primary cilium signature, clinical trial SUVEGIL. Format: in vivo, human. Conditions: ccRCC patients treated with sunitinib, no VDAC1-ΔC. Here is the method:
FIG. 3. Patients with primary cilium signature present a higher immunogenicity compared to no primary cilium signature and a better response to immunotherapy. (A) Progression free-survival (PFS) and (B) Overall survival (OS) for the primary cilium signature was calculated from patients of the TCGA cohort C treated with sunitinib using the GLI1/IFT20 signature. Statistical significance (p-value) is indicated. The median survival is also indicated.
The Student's t-test was used to compare continuous variables and chi-square test, or Fisher's exact test (when the conditions for use of the χ2-test were not fulfilled), were used for categorical variables. To guarantee the independence of primary cilium as a prognostic factor, the multivariate analysis was performed using Cox regression adjusted to the stage and age. DFS was defined as the time from surgery to the appearance of metastasis. OS was defined as the time between surgery and the date of death from any cause, censoring those alive at last follow-up. The Kaplan-Meier method was used to produce survival curves and analyses of censored data were performed using Cox models. All analyses were performed using R software, version 3.2.2 (Vienna, Austria, https://www.r-project.org/).
We thus checked if PC+ patients with a GLI1+/IFT20+ signature and no VDAC1-ΔC are resistant or sensitive to sunitinib.

Each structure is given as a SMILES string.

For `O=C(O)C(=O)CBr` [3BP, 3-bromopyruvate], in the assay on RCC4 cells, the cell death entry is “increased cell death”. In addition, the “aggressiveness (invasion) compared to control” value with RCC4 siVDAC1 cells was “strongly decreased”. In assay [1] (cells presenting no VDAC1-ΔC or less VDAC1, 10 and 25 μM), the “sensitivity to 3BP” value is on record as “highly sensitive”.
For `CCN(CC)CCNC(=O)c1c(C)[nH]c(/C=C2\C(=O)Nc3ccc(F)cc32)c1C` [sunitinib, N-[2-(diethylamino)ethyl]-5-{[(3Z)-5-fluoro-2-oxo-2,3-dihydro-1H-indol-3-ylidene]methyl}-2,4-dimethyl-1H-pyrrole-3-carboxamide], the sensitivity to sunitinib result in assay [1] (RCC4+pVHL, RCC4 and RCC4 siVDAC1 cells (all these cells), 1.0 and 1.5 μM) is reported as “sensitive”; in assay [1] (RCC4 cells expressing no VDAC1-ΔC), “less sensitive”. Moreover, the “sensitivity to sunitinib, relative” value in assay [1] (cells with VDAC1-ΔC versus RCC4+pVHL cells or cells with no VDAC1-ΔC or less VDAC1, 1.0 and 1.5 μM) is “slightly more sensitive”. Also, in the assay on ccRCC, the “survival (PFS and OS) of PC+ patients versus PC− groups” value was “lower survival”.

The values are drawn from patent US20220098674A1, “METHODS AND COMPOSITIONS FOR SELECTING A CANCER TREATMENT IN A SUBJECT SUFFERING FROM CANCER” (INSERM (INSTITUT NATIONAL DE LA SANTÉ ET DR LA RECHERCH …, priority 2019, published 2022).
